Measured values reported in US20250163104A1, “MACROCYCLIC IMMUNOMODULATORS” (priority 2021, published 2025).
Where a SMILES comes first, the peptide text is derived from it. Bridges are numbered along the chain shown (N, C = ends). [ ]: non-standard residue; d: D form. The star is where a group is joined. Phe(3-CF3) = N[C@@H](Cc1cccc(C(F)(F)F)c1)C(=O)O; Ala(morpholin-4-yl) = N[C@@H](CN1CCOCC1)C(=O)O; Phe(4-COOH) = N[C@@H](Cc1ccc(C(=O)O)cc1)C(=O)O; Bip = N[C@@H](Cc1ccc(-c2ccccc2)cc1)C(=O)O; Phe(3-Me) = Cc1cccc(C[C@H](N)C(=O)O)c1; Abu(3S-NH2) = C[C@H](N)[C@H](N)C(=O)O; Phe(2-F) = N[C@@H](Cc1ccccc1F)C(=O)O; aIle = CC[C@@H](C)[C@H](N)C(=O)O; 4Pal = N[C@@H](Cc1ccncc1)C(=O)O; 3Thi = N[C@@H](Cc1ccsc1)C(=O)O; Cha = N[C@@H](CC1CCCCC1)C(=O)O; Cit = NC(=O)NCCC[C@H](N)C(=O)O; dCha = N[C@H](CC1CCCCC1)C(=O)O; Tle = CC(C)(C)[C@H](N)C(=O)O; Carboxymethyl = O=C(O)C*; Orn = NCCC[C@H](N)C(=O)O; Dab = NCC[C@H](N)C(=O)O; Dap = NC[C@H](N)C(=O)O

Molecular target: T1, human PD-1 / PD-L1-Ig binding on Jurkat cell line over-expressing human PD-1 (Jurkat-PD-1) (Homo sapiens, UniProt Q15116)
T1 construct: expressed in transfected cells; host or cells: Jurkat
Assay: Jurkat-PD-1 Cell Binding High-Content Screening Assay (CBA)
Format: cell-based
Settings: Jurkat HPD1_PDL1 IC50, Jurkat-PD-1 cells, PE-labeled PD-L1-Ig 20 nM final
Outline: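 Cell-bound PE-labeled PD-L1-Ig (20 nM final, 1 h) measured by high-content imaging after fixation and Hoechst 33342 counterstain. Compound was applied first for 2 h at 37° C. to Jurkat cells over-expressing human PD-1 in DMEM with 10% FCS.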

T1 sequence (Q15116 25-288): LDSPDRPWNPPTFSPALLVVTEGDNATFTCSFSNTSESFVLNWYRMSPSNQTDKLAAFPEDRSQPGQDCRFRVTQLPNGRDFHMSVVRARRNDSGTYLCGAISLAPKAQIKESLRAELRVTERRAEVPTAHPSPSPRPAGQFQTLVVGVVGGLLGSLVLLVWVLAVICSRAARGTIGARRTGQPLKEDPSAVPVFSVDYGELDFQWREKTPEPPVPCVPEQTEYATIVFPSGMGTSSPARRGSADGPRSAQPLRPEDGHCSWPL

`CC[C@H](C)[C@@H]1NC(=O)[C@H](Cc2ccc(-c3ccccc3)cc2)NC(=O)[C@H](C(C)C)NC(=O)[C@H](Cc2c[nH]c3ccccc23)NC(=O)[C@H](CC(=O)O)NC(=O)[C@H](Cc2ccc(OCC(=O)O)cc2)NC(=O)[C@H](Cc2ccc(OCC(=O)O)cc2)NC(=O)CSC[C@@H](C(=O)N[C@@H](C)C(N)=O)NC(=O)[C@H]([C@@H](C)O)NC(=O)[C@H](C(C)C)NC(=O)[C@H](CC2CCCCC2)NC(=O)[C@H](Cc2c[nH]cn2)NC(=O)[C@@H](CC(C)C)NC(=O)[C@H](CCCN)NC1=O` [Compound 1592] gave an IC50 of 31.5 nM.

Same assay, conditions: Jurkat-PD-1 cells, PE-labeled PD-L1-Ig 20 nM final; read-out: Jurkat HPD1_PDL1 IC50

Going from `CC[C@@H](C)[C@@H]1NC(=O)[C@H](Cc2ccc(-c3ccccc3)cc2)NC(=O)[C@H](C(C)C)NC(=O)[C@H](Cc2c[nH]c3ccccc23)NC(=O)[C@H](CC(=O)O)NC(=O)[C@H](Cc2ccc(C(=O)O)cc2)NC(=O)[C@H](Cc2ccncc2)NC(=O)CSC[C@@H](C(=O)N[C@@H](C)C(N)=O)NC(=O)[C@H]([C@@H](C)O)NC(=O)[C@H](C(C)C)NC(=O)[C@H](CC2CCCCC2)NC(=O)[C@H](CCN)NC(=O)[C@@H](CC2CCCCC2)NC(=O)[C@H](CCCN)NC1=O` [Compound 1624] ({CH2CO}-[4Pal][Phe(4-COOH)]DWV[Bip][aIle][Orn][dCha][Dab][Cha]VTCA-NH2; thioether N-14) to `CC(C)C[C@H]1NC(=O)[C@H](CCCN)NC(=O)[C@H](C(C)C)NC(=O)[C@H](Cc2ccc(-c3ccccc3)cc2)NC(=O)[C@H](C(C)C)NC(=O)[C@H](Cc2c[nH]c3ccccc23)NC(=O)[C@H](CC(=O)O)NC(=O)[C@H](Cc2ccc(O)cc2)NC(=O)[C@H](Cc2ccc(OCC(=O)O)cc2)NC(=O)CSC[C@@H](C(=O)N[C@@H](C)C(N)=O)NC(=O)[C@H]([C@@H](C)O)NC(=O)[C@H](C(C)C)NC(=O)[C@H](CC2CCCCC2)NC(=O)[C@H](CCN)NC1=O` [Compound 1173], the IC50 falls from 26.9 nM to 9.7 nM (2.8-fold). The second is the more potent here.

First: CCCC[C@@H]1NC(=O)[C@H](CCN)NC(=O)[C@@H](CC(C)C)NC(=O)[C@H](CCCN)NC(=O)[C@H]([C@@H](C)CC)NC(=O)[C@H](Cc2ccc(-c3ccccc3)cc2)NC(=O)[C@H](C(C)C)NC(=O)[C@H](Cc2cccc(C)c2)NC(=O)[C@H](CC(=O)O)NC(=O)[C@H](Cc2ccc(C(=O)O)cc2)NC(=O)[C@H](CN)NC(=O)CSC[C@@H](C(=O)N[C@@H](C)C(N)=O)NC(=O)[C@H]([C@@H](C)O)NC(=O)[C@H](C(C)C)NC1=O [Compound 1203]
Second: CCCC[C@@H]1NC(=O)[C@H](CCN)NC(=O)[C@@H](CC(C)C)NC(=O)[C@H](CCCN)NC(=O)[C@H]([C@@H](C)CC)NC(=O)[C@H](Cc2ccc(-c3ccccc3)cc2)NC(=O)[C@H](C(C)C)NC(=O)[C@H](Cc2cccc(C)c2)NC(=O)[C@H](CC(=O)O)NC(=O)[C@H](Cc2ccc(C(=O)O)cc2)NC(=O)[C@H](Cc2ccncc2)NC(=O)CSC[C@@H](C(=O)N[C@@H](C)C(N)=O)NC(=O)[C@H]([C@@H](C)O)NC(=O)[C@H](C(C)C)NC1=O [Compound 1191]
The IC50 of the first is 4.7-fold higher: 47.4 nM for the first, 10 nM for the second.

First: CC(C)C[C@H]1NC(=O)[C@H](CCCN)NC(=O)[C@H](CCC(=O)O)NC(=O)[C@H](Cc2ccc(-c3ccccc3)cc2)NC(=O)[C@H](C(C)C)NC(=O)[C@H](Cc2ccccc2F)NC(=O)[C@H](CC(=O)O)NC(=O)[C@H](Cc2ccncc2)NC(=O)[C@H](CN)NC(=O)CSC[C@@H](C(=O)N[C@@H](C)C(N)=O)NC(=O)[C@H]([C@@H](C)O)NC(=O)[C@H](C(C)C)NC(=O)[C@H](CC2CCCCC2)NC(=O)[C@H](CCN)NC1=O [Compound 2209] ({CH2CO}-[Dap][4Pal]D[Phe(2-F)]V[Bip]E[Orn][dL][Dab][Cha]VTCA-NH2; thioether N-14)
Second: Cc1cccc(C[C@@H]2NC(=O)[C@H](CC(=O)O)NC(=O)[C@H](Cc3ccc(OCC(=O)O)cc3)NC(=O)[C@H](CN)NC(=O)CSC[C@@H](C(=O)N[C@@H](C)C(N)=O)NC(=O)[C@H]([C@@H](C)O)NC(=O)[C@H](C(C)C)NC(=O)[C@H](CC3CCCCC3)NC(=O)[C@H](CCN)NC(=O)[C@@H](CC(C)C)NC(=O)[C@H](CCCN)NC(=O)[C@H](C(C)C)NC(=O)[C@H](Cc3ccc(-c4ccccc4)cc3)NC(=O)[C@H](CC(C)C)NC2=O)c1 [Compound 1303] ({CH2CO}-[Dap]Y(Carboxymethyl)D[Phe(3-Me)]L[Bip]V[Orn][dL][Dab][Cha]VTCA-NH2; thioether N-14)
The IC50 of the first is 6.2-fold higher: 29.7 nM for the first, 4.8 nM for the second. The second is the more potent here.

First: CC(C)C[C@H]1NC(=O)[C@H](CCCN)NC(=O)[C@H](CCC(=O)O)NC(=O)[C@H](Cc2ccc(-c3ccccc3)cc2)NC(=O)[C@H](C(C)C)NC(=O)[C@H](Cc2c[nH]c3ccccc23)NC(=O)[C@H](CC(=O)O)NC(=O)[C@H](Cc2ccc(OCC(=O)O)cc2)NC(=O)[C@H](CN)NC(=O)CSC[C@@H](C(=O)N[C@@H](C)C(N)=O)NC(=O)[C@H]([C@@H](C)O)NC(=O)[C@H](C(C)C)NC(=O)[C@H](Cc2cccc(C(F)(F)F)c2)NC(=O)[C@H](CCN)NC1=O [Compound 1468] ({CH2CO}-[Dap]Y(Carboxymethyl)DWV[Bip]E[Orn][dL][Dab][Phe(3-CF3)]VTCA-NH2; thioether N-14)
Second: CC(C)C[C@H]1NC(=O)[C@H](CCCN)NC(=O)[C@H](CCCCN)NC(=O)[C@H](Cc2ccc(-c3ccccc3)cc2)NC(=O)[C@H](C(C)C)NC(=O)[C@H](Cc2c[nH]c3ccccc23)NC(=O)[C@H](CC(=O)O)NC(=O)[C@H](Cc2ccc(C(=O)O)cc2)NC(=O)[C@H](Cc2ccc(OCC(=O)O)cc2)NC(=O)CSC[C@@H](C(=O)N[C@@H](C)C(N)=O)NC(=O)[C@H]([C@@H](C)O)NC(=O)[C@H](C(C)C)NC(=O)[C@H](CC2CCCCC2)NC(=O)[C@H](CCN)NC1=O [Compound 1385] ({CH2CO}-Y(Carboxymethyl)[Phe(4-COOH)]DWV[Bip]K[Orn][dL][Dab][Cha]VTCA-NH2; thioether N-14)
The IC50 of the first is 12-fold higher: 73.5 nM for the first, 6.1 nM for the second. The second is the more potent here.

`CCNC(=O)[C@H](CCN)NC(=O)[C@@H]1CSCC(=O)N[C@@H](CN)C(=O)N[C@@H](Cc2ccc(OCC(=O)O)cc2)C(=O)N[C@@H](CC(=O)O)C(=O)N[C@@H](Cc2cccc(C)c2)C(=O)N[C@@H](C(C)C)C(=O)N[C@@H](Cc2ccc(-c3ccccc3)cc2)C(=O)N[C@@H](CCCNC(N)=O)C(=O)N[C@@H](CCCN)C(=O)N[C@H](CC(C)C)C(=O)N[C@@H](CCN)C(=O)N[C@@H](CC2CCCCC2)C(=O)N[C@@H](C(C)C)C(=O)N[C@@H]([C@@H](C)O)C(=O)N1` [Compound 2009] ({CH2CO}-[Dap]Y(Carboxymethyl)D[Phe(3-Me)]V[Bip][Cit][Orn][dL][Dab][Cha]VTC[Dab]-NHEt; thioether N-14) and `Cc1cccc(C[C@@H]2NC(=O)[C@H](CC(=O)O)NC(=O)[C@H](Cc3ccc(OCC(=O)O)cc3)NC(=O)[C@H](Cc3ccncc3)NC(=O)CSC[C@@H](C(=O)N[C@@H](C)C(N)=O)NC(=O)[C@H]([C@@H](C)O)NC(=O)[C@H](C(C)C)NC(=O)[C@H](CC3CCCCC3)NC(=O)[C@H](CCN)NC(=O)[C@@H](CC(C)C)NC(=O)[C@H](CCCN)NC(=O)[C@H](C(C)C)NC(=O)[C@H](Cc3ccc(-c4ccccc4)cc3)NC(=O)[C@H](C(C)C)NC2=O)c1` [Compound 1200] are within 1.5-fold of each other in IC50: 5.8 nM for the first, 5.4 nM for the second.

First: CC(C)C[C@H]1NC(=O)[C@H](CCN)NC(=O)[C@H](C(C)C)NC(=O)[C@H](Cc2ccc(-c3ccccc3)cc2)NC(=O)[C@H](C(C)C)NC(=O)[C@H](Cc2c[nH]c3ccccc23)NC(=O)[C@H](CC(=O)O)NC(=O)[C@H](Cc2ccc(OCC(=O)O)cc2)NC(=O)[C@H](Cc2ccsc2)NC(=O)CSC[C@@H](C(=O)N[C@H](CC(N)=O)C(N)=O)NC(=O)[C@H](CCCCN)NC(=O)[C@H](C(C)C)NC(=O)[C@H](CC2CCCCC2)NC(=O)[C@H](CCN)NC1=O [Compound 2612] ({CH2CO}-[3Thi]Y(Carboxymethyl)DWV[Bip]V[Dab][dL][Dab][Cha]VKC[dN]-NH2; thioether N-14)
Second: CC(C)C[C@@H]1NC(=O)[C@H](Cc2c[nH]c3ccccc23)NC(=O)[C@H](CC(=O)O)NC(=O)[C@H](Cc2ccc(C(=O)O)cc2)NC(=O)[C@H](Cc2ccc(OCC(=O)O)cc2)NC(=O)CSC[C@@H](C(=O)NCC(N)=O)NC(=O)[C@H](CO)NC(=O)[C@H](C(C)C)NC(=O)[C@H](CC(C)C)NC(=O)[C@H](CC(N)=O)NC(=O)[C@@H](CC(C)C)NC(=O)[C@H](CN)NC(=O)[C@H](C(C)C)NC(=O)[C@H](Cc2ccc(-c3ccccc3)cc2)NC1=O [Compound 1275] ({CH2CO}-Y(Carboxymethyl)[Phe(4-COOH)]DWL[Bip]V[Dap][dL]NLVSCG-NH2; thioether N-14)
The IC50 of the first is 2.3-fold lower: 5.9 nM for the first, 13.8 nM for the second. The first is the more potent here.

First: CC(C)C[C@H]1NC(=O)[C@H](CCCN)NC(=O)[C@H](CCCN)NC(=O)[C@H](Cc2ccc(-c3ccccc3)cc2)NC(=O)[C@H](Cc2ccc(C(=O)O)cc2)NC(=O)[C@H](Cc2cccc(C(F)(F)F)c2)NC(=O)[C@H](CC(N)=O)NC(=O)[C@H](Cc2ccc(C(=O)O)cc2)NC(=O)[C@H](CN2CCOCC2)NC(=O)CSC[C@@H](C(=O)N[C@@H](CCN)C(N)=O)NC(=O)[C@H](CCCN)NC(=O)[C@H](C(C)C)NC(=O)[C@H](CC2CCCCC2)NC(=O)[C@H](CCN)NC1=O [Example 2728] ({CH2CO}-[Ala(morpholin-4-yl)][Phe(4-COOH)]N[Phe(3-CF3)][Phe(4-COOH)][Bip][Orn][Orn][dL][Dab][Cha]V[Orn]C[Dab]-NH2; thioether N-14)
Second: CC(C)C[C@H]1NC(=O)[C@H](CCCN)NC(=O)[C@H](Cc2ccc(C(=O)O)cc2)NC(=O)[C@H](Cc2ccc(-c3ccccc3)cc2)NC(=O)[C@H](Cc2ccc(C(=O)O)cc2)NC(=O)[C@H](Cc2cccc(C(F)(F)F)c2)NC(=O)[C@H](CC(=O)O)NC(=O)[C@H](Cc2ccc(C(=O)O)cc2)NC(=O)[C@H]([C@H](C)N)NC(=O)CSC[C@@H](C(=O)N[C@@H](CCN)C(N)=O)NC(=O)[C@H](CO)NC(=O)[C@H](C(C)(C)C)NC(=O)[C@H](CC2CCCCC2)NC(=O)[C@H](CCN)NC1=O [Example 2708] ({CH2CO}-[Abu(3S-NH2)][Phe(4-COOH)]D[Phe(3-CF3)][Phe(4-COOH)][Bip][Phe(4-COOH)][Orn][dL][Dab][Cha][Tle]SC[Dab]-NH2; thioether N-14)
The IC50 of the first is 1600-fold higher: 964 nM for the first, 0.6 nM for the second.
